In US12378224B2 (Dong-A Socio Holdings Co., Ltd., priority 2016, dated 2025):

Columns and labels:
[1] = biological target: BCR fusion to kinase domain of MerTK (Ba/F3-MerTK) (Homo sapiens, UniProt Q12866); assay: In Cell TAM Kinase Assay Using BaF3 Cellular System; type: cell-based, murine; settings: Ba/F3 BCR-kinase fusion proliferation, 72 hours, Cell Titer Glo; kinase not given; read-out: IC50
Procedure, shortened: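 Ba/F3 murine pro-B cells expressing BCR–MerTK kinase-domain fusion (IL-3 independent), seeded at 1,000 cells/well onto compound and grown 72 h. Viability read by CellTiter-Glo 2.0 luminescence after 30 min at room temperature.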

human MER (528-end) = human MER (528-end) (Homo sapiens (Human), UniProt Q12866); assay: HTRF Kinase Activity Biochemical Assay (KinEASE-TK); settings: 10 uM ATP
Procedure, shortened: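 Activity read-out is the HTRF ratio (665 nm over 620 nm emission, ×10,000; excitation 340 nm) after 1 h detection with 0.375 nM Eu3+-cryptate anti-TK antibody plus 0.062 uM SA-XL665. Preceding kinase step: human MER (528-end), biotinylated TK substrate, 1 h, room temperature.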

Sequence of BCR fusion to kinase domain of MerTK (Ba/F3-MerTK) (Q12866 21-999 limits assumed, change not shown): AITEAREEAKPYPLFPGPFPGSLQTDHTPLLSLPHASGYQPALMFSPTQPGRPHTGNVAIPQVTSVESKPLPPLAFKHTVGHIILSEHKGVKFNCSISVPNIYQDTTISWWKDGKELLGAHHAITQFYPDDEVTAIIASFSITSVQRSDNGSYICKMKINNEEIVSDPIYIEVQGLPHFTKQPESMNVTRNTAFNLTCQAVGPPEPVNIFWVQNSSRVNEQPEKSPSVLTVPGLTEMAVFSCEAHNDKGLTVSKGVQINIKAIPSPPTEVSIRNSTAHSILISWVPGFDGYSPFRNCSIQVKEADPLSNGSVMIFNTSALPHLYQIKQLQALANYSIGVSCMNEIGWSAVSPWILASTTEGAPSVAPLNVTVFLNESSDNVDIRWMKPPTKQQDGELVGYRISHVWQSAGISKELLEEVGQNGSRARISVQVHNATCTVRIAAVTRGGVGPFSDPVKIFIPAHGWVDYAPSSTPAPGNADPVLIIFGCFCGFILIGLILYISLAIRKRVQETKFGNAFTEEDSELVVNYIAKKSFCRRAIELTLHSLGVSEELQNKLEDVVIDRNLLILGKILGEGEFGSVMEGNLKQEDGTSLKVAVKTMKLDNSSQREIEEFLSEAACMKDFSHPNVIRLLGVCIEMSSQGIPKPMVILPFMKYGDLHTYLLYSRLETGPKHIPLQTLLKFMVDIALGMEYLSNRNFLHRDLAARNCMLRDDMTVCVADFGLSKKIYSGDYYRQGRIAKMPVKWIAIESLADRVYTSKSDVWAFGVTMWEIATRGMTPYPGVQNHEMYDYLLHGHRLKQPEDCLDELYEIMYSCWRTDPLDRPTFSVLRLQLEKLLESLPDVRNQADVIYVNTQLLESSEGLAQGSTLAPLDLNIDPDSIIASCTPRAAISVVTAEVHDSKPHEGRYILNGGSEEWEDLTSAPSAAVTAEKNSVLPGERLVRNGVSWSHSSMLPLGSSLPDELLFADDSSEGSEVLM
Sequence of human MER (528-end) (Q12866 528-999 limits assumed): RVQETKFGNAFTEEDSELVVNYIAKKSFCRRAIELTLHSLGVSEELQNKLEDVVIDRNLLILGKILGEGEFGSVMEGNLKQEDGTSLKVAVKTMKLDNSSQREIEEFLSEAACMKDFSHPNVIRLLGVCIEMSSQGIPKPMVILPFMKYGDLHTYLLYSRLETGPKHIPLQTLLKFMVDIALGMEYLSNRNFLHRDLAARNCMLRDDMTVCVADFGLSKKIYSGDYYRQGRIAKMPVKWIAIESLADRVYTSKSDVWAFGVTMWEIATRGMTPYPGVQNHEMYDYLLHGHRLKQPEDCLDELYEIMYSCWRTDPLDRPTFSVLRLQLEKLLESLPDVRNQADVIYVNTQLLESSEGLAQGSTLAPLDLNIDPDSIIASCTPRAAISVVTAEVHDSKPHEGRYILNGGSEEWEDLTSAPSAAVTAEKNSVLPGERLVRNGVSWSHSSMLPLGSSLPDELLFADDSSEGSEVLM

Row | IC50 [1] | IC50 (human MER (528-end)) | SMILES
1 | > 1000 nM | > 1000 nM | NC(=O)c1ccccc1-c1cnc(N)c(C(=O)N[C@@H]2CCN(C(=O)c3ccc(-c4ccc(F)cc4Cl)cc3)C2)c1 [Example 776, (R)-2-amino-5-(2-carbamoylphenyl)-N-(1-(2′-chloro-4′-fluoro-[1,1′-biphenyl]-4-carbonyl)pyrrolidin-3-yl)nicotinamide]
2 | > 1000 nM | 100 to 1000 nM | Nc1ncc(-c2ccccc2O)cc1C(=O)N[C@@H]1CCN(C(=O)c2ccc(-c3ccc(F)cc3Cl)cc2)C1 [Example 778, (R)-2-amino-N-(1-(2′-chloro-4′-fluoro-[1,1′-biphenyl]-4-carbonyl)pyrrolidin-3-yl)-5-(2-hydroxyphenyl)nicotinamide]
3 | > 1000 nM | 100 to 1000 nM | Nc1ccccc1-c1cnc(N)c(C(=O)N[C@@H]2CCN(C(=O)c3ccc(-c4ccc(F)cc4Cl)cc3)C2)n1 [Example 779, (R)-3-amino-6-(2-aminophenyl)-N-(1-(2′-chloro-4′-fluoro-[1,1′-biphenyl]-4-carbonyl)pyrrolidin-3-yl)pyrazine-2-carboxamide]
4 | > 1000 nM | 10 to 100 nM | Nc1ncc(-c2ccc(C(=O)N3CCOCC3)c(Cl)c2)cc1C(=O)N[C@@H]1CCN(C(=O)c2ccc(-c3ccc(F)cc3Cl)cc2)C1 [Example 781, (R)-2-amino-N-(1-(2′-chloro-4′-fluoro-[1,1′-biphenyl]-4-carbonyl)pyrrolidin-3-yl)-5-(3-chloro-4-(morpholine-4-carbonyl)phenyl)nicotinamide]
5 | > 1000 nM | > 1000 nM | Cn1cc(-c2cnc(N)c(C(=O)N[C@@H]3CCN(C(=O)c4ccc5cc(C(=O)N6CCN(CCO)CC6)ccc5c4)C3)c2)cn1 [Example 786, (R)-2-amino-N-(1-(6-(4-(2-hydroxyethyl)piperazine-1-carbonyl)-2-naphthoyl)pyrrolidin-3-yl)-5-(1-methyl-1H-pyrazol-4-yl)nicotinamide]
6 | > 1000 nM | 10 to 100 nM | CN(C)C(=O)c1ccc(Oc2ccc(-c3ccc(C(=O)N4CC[C@@H](NC(=O)c5cc(-c6cnn(C)c6)cnc5N)C4)cc3)cc2)cc1 [Example 787, (R)-2-amino-N-(1-(4′-(4-(dimethylcarbamoyl)phenoxy)-[1,1′-biphenyl]-4-carbonyl)pyrrolidin-3-yl)-5-(1-methyl-1H-pyrazol-4-yl)nicotinamide]
7 | > 1000 nM | 10 to 100 nM | Cn1cc(-c2cnc(N)c(C(=O)N[C@@H]3CCN(C(=O)c4ccc(-c5ccc(Oc6ccc(C(N)=O)cc6)cc5)cc4)C3)c2)cn1 [Example 788, (R)-2-amino-N-(1-(4′-(4-carbamoylphenoxy)-[1,1′-biphenyl]-4-carbonyl)pyrrolidin-3-yl)-5-(1-methyl-1H-pyrazol-4-yl)nicotinamide]
8 | > 1000 nM | 10 to 100 nM | CN1CCN(Cc2ccc(-c3ccc(C(=O)N4CC[C@@H](Nc5n[nH]c6ncc(-c7cnn(C)c7)cc56)C4)cc3)cc2)CC1 [Example 794, (R)-(3-((5-(1-methyl-1H-pyrazol-4-yl)-1H-pyrazolo[3,4-b]pyridin-3-yl)amino)pyrrolidin-1-yl)(4′-((4-methylpiperazin-1-yl)methyl)-[1,1′-biphenyl]-4-yl)methanone]
9 | 500 to 1000 nM | 10 to 100 nM | Cn1cc(-c2cnc(N)c(C(=O)N[C@@H]3CCN(C(=O)c4ccc(-c5ccc(Oc6ccnc(Cl)c6)cc5)cc4)C3)c2)cn1 [Example 795, (R)-2-amino-N-(1-(4′-((2-chloropyridin-4-yl)oxy)-[1,1′-biphenyl]-4-carbonyl)pyrrolidin-3-yl)-5-(1-methyl-1H-pyrazol-4-yl)nicotinamide]
10 | > 1000 nM | 10 to 100 nM | Cn1cc(-c2cnc(N)c(C(=O)N[C@@H]3CCN(C(=O)c4ccc(-c5ccc(Oc6ccncc6)cc5)cc4)C3)c2)cn1 [Example 798, (R)-2-amino-5-(1-methyl-1H-pyrazol-4-yl)-N-(1-(4′-(pyridin-4-yloxy)-[1,1′-biphenyl]-4-carbonyl)pyrrolidin-3-yl)nicotinamide]
11 | > 1000 nM | 100 to 1000 nM | Cn1cc(-c2cnc(N)c(C(=O)N[C@@H]3CCN(C(=O)c4ccc(-c5ccc(Oc6cccnc6)cc5)cc4)C3)c2)cn1 [Example 802, (R)-2-amino-5-(1-methyl-1H-pyrazol-4-yl)-N-(1-(4′-(pyridin-3-yloxy)-[1,1′-biphenyl]-4-carbonyl)pyrrolidin-3-yl)nicotinamide]
12 | > 1000 nM | 100 to 1000 nM | CN(c1ccc(-c2ccc(C(=O)N3CC[C@@H](NC(=O)c4cc(-c5cnn(C)c5)cnc4N)C3)cc2)cc1)c1ccc([N+](=O)[O-])cc1 [Example 803, (R)-2-amino-N-(1-(4′-(methyl(4-nitrophenyl)amino)-[1,1′-biphenyl]-4-carbonyl)pyrrolidin-3-yl)-5-(1-methyl-1H-pyrazol-4-yl)nicotinamide]
13 | > 1000 nM | 100 to 1000 nM | CN(c1ccc(-c2ccc(C(=O)N3CC[C@@H](NC(=O)c4cc(-c5cnn(C)c5)cnc4N)C3)cc2)cc1)c1ccc([N+](=O)[O-])cc1F [Example 804, (R)-2-amino-N-(1-(4′-((2-fluoro-4-nitrophenyl)(methyl)amino)-[1,1′-biphenyl]-4-carbonyl)pyrrolidin-3-yl)-5-(1-methyl-1H-pyrazol-4-yl)nicotinamide]
14 | > 1000 nM | > 1000 nM | CN(c1ccc(-c2ccc(C(=O)N3CC[C@@H](NC(=O)c4cc(-c5cnn(C)c5)cnc4N)C3)cc2)cc1)c1ccc([N+](=O)[O-])cc1Cl [Example 806, (R)-2-amino-N-(1-(4′-((2-chloro-4-nitrophenyl)(methyl)amino)-[1,1′-biphenyl]-4-carbonyl)pyrrolidin-3-yl)-5-(1-methyl-1H-pyrazol-4-yl)nicotinamide]
15 | 100 to 500 nM | 10 to 100 nM | Cn1cc(-c2cnc(N)c(C(=O)N[C@@H]3CCN(C(=O)c4ccc(-c5ccc(Oc6ccc(O)cc6)c(Cl)c5)cc4)C3)c2)cn1 [Example 808, (R)-2-amino-N-(1-(3′-chloro-4′-(4-hydroxyphenoxy)-[1,1′-biphenyl]-4-carbonyl)pyrrolidin-3-yl)-5-(1-methyl-1H-pyrazol-4-yl)nicotinamide]
16 | > 1000 nM | 10 to 100 nM | CN1CCC(Oc2ccc(-c3ccc(C(=O)N4CC[C@@H](NC(=O)c5cc(-c6cnn(C)c6)cnc5N)C4)cc3)cc2)CC1 [Example 809, (R)-2-amino-5-(1-methyl-1H-pyrazol-4-yl)-N-(1-(4′-((1-methylpiperidin-4-yl)oxy)-[1,1′-biphenyl]-4-carbonyl)pyrrolidin-3-yl)nicotinamide]
17 | > 1000 nM | 10 to 100 nM | Cn1cc(-c2cnc(N)c(C(=O)N[C@@H]3CCN(C(=O)c4ccc(-c5ccc(Oc6ccc(C=O)cc6)cc5)cc4)C3)c2)cn1 [Example 811, (R)-2-amino-N-(1-(4′-(4-formylphenoxy)-[1,1′-biphenyl]-4-carbonyl)pyrrolidin-3-yl)-5-(1-methyl-1H-pyrazol-4-yl)nicotinamide]
18 | > 1000 nM | 10 to 100 nM | Cn1cc(-c2cnc(N)c(C(=O)N[C@@H]3CCN(C(=O)c4ccc(-c5ccc(Oc6ccc(C(=O)O)cc6)cc5)cc4)C3)c2)cn1 [Example 812, (R)-4-((4′-(3-(2-amino-5-(1-methyl-1H-pyrazol-4-yl)nicotinamido)pyrrolidine-1-carbonyl)-[1,1′-biphenyl]-4-yl)oxy)benzoic acid]
19 | > 1000 nM | 100 to 1000 nM | Cn1cc(-c2cnc(N)c(C(=O)N[C@@H]3CCN(C(=O)c4ccc5cc(NC6CCNCC6)ccc5c4)C3)c2)cn1 [Example 816, (R)-2-amino-5-(1-methyl-1H-pyrazol-4-yl)-N-(1-(6-(piperidin-4-ylamino)-2-naphthoyl)pyrrolidin-3-yl)nicotinamide]
20 | > 1000 nM | 100 to 1000 nM | Cn1cc(-c2cnc(N)c(C(=O)N[C@@H]3CCN(C(=O)c4ccc5cc(NC6CCN(CCO)CC6)ccc5c4)C3)c2)cn1 [Example 817, (R)-2-amino-N-(1-(6-((1-(2-hydroxyethyl)piperidin-4-yl)amino)-2-naphthoyl)pyrrolidin-3-yl)-5-(1-methyl-1H-pyrazol-4-yl)nicotinamide]
21 | > 1000 nM | 10 to 100 nM | CN(c1ccc2cc(C(=O)N3CC[C@@H](NC(=O)c4cc(-c5cnn(C)c5)cnc4N)C3)ccc2c1)C1CCNCC1 [Example 818, (R)-2-amino-N-(1-(6-(methyl(piperidin-4-yl)amino)-2-naphthoyl)pyrrolidin-3-yl)-5-(1-methyl-1H-pyrazol-4-yl)nicotinamide]
22 | > 1000 nM | 10 to 100 nM | Cn1cc(-c2cnc(N)c(C(=O)N[C@@H]3CCN(C(=O)c4ccc(-c5ccc(CC6CCN(CCO)CC6)cc5)cc4)C3)c2)cn1 [Example 819, (R)-2-amino-N-(1-(4′-((1-(2-hydroxyethyl)piperidin-4-yl)methyl)-[1,1′-biphenyl]-4-carbonyl)pyrrolidin-3-yl)-5-(1-methyl-1H-pyrazol-4-yl)nicotinamide]
23 | 100 to 500 nM | 10 to 100 nM | CN(c1ccc2cc(C(=O)N3CC[C@@H](NC(=O)c4cc(-c5cnn(C)c5)cnc4N)C3)ccc2c1)C1CCN(CCO)CC1 [Example 820, (R)-2-amino-N-(1-(6-((1-(2-hydroxyethyl)piperidin-4-yl)(methyl)amino)-2-naphthoyl)pyrrolidin-3-yl)-5-(1-methyl-1H-pyrazol-4-yl)nicotinamide]
24 | > 1000 nM | 10 to 100 nM | CC(/C=C/c1ccc(C(=O)N2CC[C@@H](NC(=O)c3cc(-c4cnn(C)c4)cnc3N)C2)cc1)N1CCN(CCO)CC1 (stereo partly drawn) [Example 823, 2-amino-N-((3R)-1-(4-((E)-3-(4-(2-hydroxyethyl)piperazin-1-yl)but-1-en-1-yl)benzoyl)pyrrolidin-3-yl)-5-(1-methyl-1H-pyrazol-4-yl)nicotinamide]
